Measurements published in publication PMC12655351, “Synthesis and Anticancer Activity Evaluation of New 5-((5-Nitrofuran-2-yl)allylidene)-2-thioxo-4-thiazolidinones” (Pharmaceuticals, 2025).

Tests used:
UACC-62 = experiment: NCI-60 SRB screen
HOP-62 = experiment: NCI-60 SRB screen; details: HOP-62, 48 h
[1] = test system: caspase-3 in MDA-MB-231 cells; experiment: caspase-3 ELISA; format: cell-based, human; details: MDA-MB-231, 10 μM (highest concentration), 24 h
Description: To confirm the activity of the caspase pathway, an effector caspase-3 was assayed on MCF-7 and MDA-MB-231 cell lines after 24 h of treatment using the ELISA method. Novel 4-thiazolidinone derivatives were tested in concentrations of 1 and 5 μM for the MCF-7 cell line and 5 and 10 μM for the MDA-MB-231 cell line.
Using a SimpleStep ELISA kit (Abcam, Cambridge, UK), we determined the levels of cytochrome C and caspase-3 in cells’ lysates with 2b, 12b, and 14b (1 and 5 μM for the MCF-7 cell line and 5 and 10 μM for the MDA-MB-231) and doxorubicin in concentrations of 1 and 5 μM for both lines after 24 h incubation. Assays were performed according to the manufacturer’s protocols.

SK-MEL-5 = experiment: cells; details: Homo sapiens, SK-MEL-5, 48 h
SF-539 = experiment: cells; details: Homo sapiens, SF-539, 48 h
MDA-MB-231 = experiment: MTT assay; format: cell-based; details: Homo sapiens; MDA-MB-231, 24 h of treatment
Description: (§1) The NCI-60 screening protocol utilizes the sulforhodamine B (SRB) assay following 48 h of compound exposure. […] The MTT assay was performed on eleven cancer cell lines: human breast cancer (MDA-MB-231, MCF-7, HCC 1954), human gastric cancer (AGS), human colorectal adenocarcinoma (HT-29, DLD-1, HCT 116), human neuroblastoma (SH SY5Y), and human leukemia (JURKAT, RMPI 8866, K-562) cell lines. The study was conducted in triplicate at the following seven concentrations: 0.62, 1.25, 2.5, 5, 10, 20, and 40 μM.
(§2) The selected cell lines were seeded into 96-well plates and cultured in accordance with the previously described methodology. Then, the cells were treated with all tested compounds and DOX at concentrations of 0.625, 1.25, 2.5, 5.0, 10.0, 20.0, and 40.0 μM for 24 h. A solution of 3-(4,5-dimethyl-2-thiazolyl)-2,5-diphenyl-2H-tetrazolium bromide (Sigma-Aldrich, St. Louis, MO, USA) in phosphate-buffered saline without calcium and magnesium (Corning, Kennebunk, ME, USA) at a concentration of 5 mg/mL was used to carry out MTT assay. After incubation, 20 μL of the prepared MTT solution was added, and then the cells were incubated at 37 °C for two hours. Afterwards, the cells were lysed using 100 μL of lysing buffer (comprising 25 mM HCl, 2% acetic acid, 3% DMF, and 5% SDS, with a pH of 4.7). The absorbance was determined at a wavelength of 570 nm using an Absorbance 96 microplate reader (Byonoy GmbH, Hamburg, Germany).

K562 = experiment: MTT assay; format: cell-based; details: Homo sapiens; K562, 24 h of treatment
Description: as §1, §2

Jurkat = experiment: MTT assay; format: cell-based; details: Homo sapiens, 24 h of treatment
Description: as §1, §2

HT-29 = experiment: MTT assay; format: cell-based; details: Homo sapiens; HT-29, 24 h of treatment
Description: as §1, §2

DLD-1 = experiment: MTT assay; format: cell-based; details: Homo sapiens; DLD-1, 24 h of treatment
Description: as §1, §2

RPMI 8866 = experiment: MTT assay; format: cell-based; details: Homo sapiens; RPMI 8866, 24 h of treatment
Description: as §1, §2

HCT-116 = experiment: MTT assay; format: cell-based; details: Homo sapiens; HCT-116, 24 h of treatment
Description: as §1, §2

HCC-1954 = experiment: MTT assay; format: cell-based; details: Homo sapiens, HCC1954; HCC-1954, 24 h of treatment
Description: as §1, §2

MCF-7 = experiment: MTT assay; format: cell-based; details: Homo sapiens, MCF7; MCF-7, 24 h of treatment
Description: as §1, §2

AGS = experiment: MTT assay; format: cell-based; details: Homo sapiens, 24 h of treatment
Description: as §1, §2

SH SY5Y = experiment: MTT assay; format: cell-based; details: Homo sapiens, 24 h of treatment
Description: as §1, §2

K-562 = details: K-562, 48 h
SNB-75 = experiment: NCI-60 SRB screen; details: SNB-75, 48 h
SR = experiment: cells; details: Homo sapiens, 48 h

Structure (SMILES): O=C(O)CCN1C(=O)/C(=C/C=C/c2ccc([N+](=O)[O-])o2)SC1=S [12b, 3-((Z)-5-((E)-3-(5-Nitrofuran-2-yl)allylidene)-4-oxo-2-thioxothiazolidin-3-yl)propanoic acid]
- GI50 (UACC-62; Homo sapiens, UACC-62, 48 h): 0.65 µM
- CC50 (UACC-62; Homo sapiens, UACC-62, 48 h, read-out: LC50, UACC-62, 48 h): 4.16 µM
- growth GP (UACC-62; UACC-62, 10 μM, 48 h): -97.43%
- TGI (UACC-62; UACC-62, 48 h): 2.00 µM
- TGI (HOP-62): 3.57 µM
- GI50 (HOP-62; Homo sapiens): 1.61 µM
- growth GP (OVCAR-3; OVCAR-3, 10 μM, 48 h): -96.70%
- TGI (OVCAR-3; OVCAR-3, 48 h): 3.01 µM
- change of caspase-3 concentration [1]: significant increase
- GI50 (SK-MEL-5): 1.03 µM
- CC50 (SK-MEL-5; read-out: LC50, SK-MEL-5, 48 h): 4.87 µM
- GI50 (SF-539): 1.66 µM
- IC50 (MDA-MB-231): 12.9 µM
- IC50 (K562): 7.15 µM
- IC50 (Jurkat): 1.77 µM
- IC50 (HT-29): 8.56 µM
- IC50 (DLD-1): 3.31 µM
- IC50 (RPMI 8866): 7.78 µM
- IC50 (HCT-116): 3.68 µM
- IC50 (HCC-1954): 4.86 µM
- IC50 (MCF-7): 3.01 µM
- IC50 (AGS): 3.65 µM
- IC50 (SH SY5Y): 13.1 µM
- TGI (K-562): 2.73 µM
- GI50 (SNB-75; Homo sapiens): 1.1 µM
- CC50 (SNB-75; Homo sapiens, read-out: LC50, SNB-75, 48 h): 14.1 µM
- TGI (SNB-75): 3.67 µM
- GI50 (SR): 0.3 µM
